Source: PubChem BioAssay (NCI)
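Grown in 96-well plates, cells were treated for 48 hours with each compound at five concentrations. Insufficient inhibition: endpoint recorded as highest concentration tested. At the TGI there is no net growth.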

Tests used:
Assay in all cases: NCI-60 cell line screen, 48 h
786-0 renal = system: 786-0 renal
A549 NSCLC = system: A549 NSCLC
ACHN renal = system: ACHN renal
CAKI-1 renal = system: CAKI-1 renal
CCRF-CEM leukemia = system: CCRF-CEM leukemia
COLO 205 colon = system: COLO 205 colon
DLD-1 colon = system: DLD-1 colon
DMS 114 small cell lung = system: DMS 114 small cell lung
DMS 273 small cell lung = system: DMS 273 small cell lung
EKVX NSCLC = system: EKVX NSCLC
HCC-2998 colon = system: HCC-2998 colon
HCT-116 colon = system: HCT-116 colon
HCT-15 colon = system: HCT-15 colon
HL-60(TB) leukemia = system: HL-60(TB) leukemia
HOP-18 NSCLC = system: HOP-18 NSCLC
HOP-62 NSCLC = system: HOP-62 NSCLC
HOP-92 NSCLC = system: HOP-92 NSCLC
HT29 colon = system: HT29 colon
IGROV1 ovarian = system: IGROV1 ovarian
K-562 leukemia = system: K-562 leukemia
KM12 colon = system: KM12 colon
KM20L2 colon = system: KM20L2 colon
LOX IMVI melanoma = system: LOX IMVI melanoma
LXFL 529 NSCLC = system: LXFL 529 NSCLC
M14 melanoma = system: M14 melanoma
M19-MEL melanoma = system: M19-MEL melanoma
MALME-3M melanoma = system: MALME-3M melanoma
MOLT-4 leukemia = system: MOLT-4 leukemia
NCI-H226 lung = system: NCI-H226 lung
NCI-H23 lung = system: NCI-H23 lung
NCI-H460 lung = system: NCI-H460 lung
NCI-H522 lung = system: NCI-H522 lung
OVCAR-3 ovarian = system: OVCAR-3 ovarian
OVCAR-4 ovarian = system: OVCAR-4 ovarian
OVCAR-5 ovarian = system: OVCAR-5 ovarian
OVCAR-8 ovarian = system: OVCAR-8 ovarian
RPMI-8226 leukemia = system: RPMI-8226 leukemia
RXF 393 renal = system: RXF 393 renal
SF-268 CNS = system: SF-268 CNS
SF-295 CNS = system: SF-295 CNS
SF-539 CNS = system: SF-539 CNS
SK-MEL-2 melanoma = system: SK-MEL-2 melanoma
SK-MEL-28 melanoma = system: SK-MEL-28 melanoma
SK-MEL-5 melanoma = system: SK-MEL-5 melanoma
SK-OV-3 ovarian = system: SK-OV-3 ovarian
SN12C renal = system: SN12C renal
SNB-19 CNS = system: SNB-19 CNS
SNB-75 CNS = system: SNB-75 CNS
SNB-78 CNS = system: SNB-78 CNS
SR leukemia = system: SR leukemia
SW-620 colon = system: SW-620 colon
TK-10 renal = system: TK-10 renal
U251 CNS = system: U251 CNS
UACC-257 melanoma = system: UACC-257 melanoma
UACC-62 melanoma = system: UACC-62 melanoma
UO-31 renal = system: UO-31 renal
XF 498 CNS = system: XF 498 CNS
A498 renal = system: A498 renal
BT-549 breast = system: BT-549 breast
DU-145 prostate = system: DU-145 prostate
HS 578T breast = system: HS 578T breast
MCF7 breast = system: MCF7 breast
MDA-MB-231 breast = system: MDA-MB-231 breast
MDA-MB-435 = system: MDA-MB-435
MDA-N = system: MDA-N
NCI/ADR-RES ovarian = system: NCI/ADR-RES ovarian
PC-3 prostate = system: PC-3 prostate
T-47D breast = system: T-47D breast

## CCOc1ccc(/C(Cl)=C(\C=O)c2ccc(OC)c(OC)c2)cc1OCC
786-0 renal
  TGI: > 100 µM
A549 NSCLC
  TGI: > 100 µM
ACHN renal
  TGI: > 100 µM
CAKI-1 renal
  TGI: > 100 µM
CCRF-CEM leukemia
  TGI: > 100 µM
COLO 205 colon
  TGI: > 100 µM
DLD-1 colon
  TGI: > 100 µM
DMS 114 small cell lung
  TGI: 66.1 µM
DMS 273 small cell lung
  TGI: > 100 µM
EKVX NSCLC
  TGI: > 100 µM
HCC-2998 colon
  TGI: > 100 µM
HCT-116 colon
  TGI: > 100 µM
HCT-15 colon
  TGI: > 100 µM
HL-60(TB) leukemia
  TGI: 62.7 µM
HOP-18 NSCLC
  TGI: > 100 µM
HOP-62 NSCLC
  TGI: > 100 µM
HOP-92 NSCLC
  TGI: > 100 µM
HT29 colon
  TGI: > 100 µM
IGROV1 ovarian
  TGI: > 100 µM
K-562 leukemia
  TGI: > 100 µM
KM12 colon
  TGI: > 100 µM
KM20L2 colon
  TGI: > 100 µM
LOX IMVI melanoma
  TGI: > 100 µM
LXFL 529 NSCLC
  TGI: > 100 µM
M14 melanoma
  TGI: > 100 µM
M19-MEL melanoma
  TGI: > 100 µM
MALME-3M melanoma
  TGI: > 100 µM
MOLT-4 leukemia
  TGI: > 100 µM
NCI-H226 lung
  TGI: > 100 µM
NCI-H23 lung
  TGI: > 100 µM
NCI-H460 lung
  TGI: > 100 µM
NCI-H522 lung
  TGI: > 100 µM
OVCAR-3 ovarian
  TGI: > 100 µM
OVCAR-4 ovarian
  TGI: > 100 µM
OVCAR-5 ovarian
  TGI: > 100 µM
OVCAR-8 ovarian
  TGI: > 100 µM
RPMI-8226 leukemia
  TGI: > 100 µM
RXF 393 renal
  TGI: > 100 µM
SF-268 CNS
  TGI: > 100 µM
SF-295 CNS
  TGI: > 100 µM
SF-539 CNS
  TGI: > 100 µM
SK-MEL-2 melanoma
  TGI: > 100 µM
SK-MEL-28 melanoma
  TGI: > 100 µM
SK-MEL-5 melanoma
  TGI: 64.9 µM
SK-OV-3 ovarian
  TGI: > 100 µM
SN12C renal
  TGI: > 100 µM
SNB-19 CNS
  TGI: > 100 µM
SNB-75 CNS
  TGI: > 100 µM
SNB-78 CNS
  TGI: > 100 µM
SR leukemia
  TGI: 50.8 µM
SW-620 colon
  TGI: > 100 µM
TK-10 renal
  TGI: > 100 µM
U251 CNS
  TGI: 97.5 µM
UACC-257 melanoma
  TGI: > 100 µM
UACC-62 melanoma
  TGI: > 100 µM
UO-31 renal
  TGI: > 100 µM
XF 498 CNS
  TGI: > 100 µM

## Nc1ccc2c(SCc3ccc([N+](=O)[O-])cc3)c3ccccc3nc2c1
786-0 renal
  TGI: 20.1 µM
A498 renal
  TGI: 49.2 µM
A549 NSCLC
  TGI: 48.9 µM
ACHN renal
  TGI: 14.5 µM
BT-549 breast
  TGI: 32.1 µM
CAKI-1 renal
  TGI: 28.7 µM
CCRF-CEM leukemia
  TGI: 5.15 µM
COLO 205 colon
  TGI: 6.36 µM
DLD-1 colon
  TGI: 6.04 µM
DMS 114 small cell lung
  TGI: 29.8 µM
DMS 273 small cell lung
  TGI: 39.2 µM
DU-145 prostate
  TGI: 17.9 µM
EKVX NSCLC
  TGI: 59 µM
HCC-2998 colon
  TGI: > 54 µM
HCT-116 colon
  TGI: 22.7 µM
HCT-15 colon
  TGI: 31.1 µM
HL-60(TB) leukemia
  TGI: 10.1 µM
HOP-18 NSCLC
  TGI: 26.5 µM
HOP-62 NSCLC
  TGI: 46.5 µM
HOP-92 NSCLC
  TGI: 36.4 µM
HS 578T breast
  TGI: 48 µM
HT29 colon
  TGI: 32.6 µM
IGROV1 ovarian
  TGI: 39.5 µM
K-562 leukemia
  TGI: 27.9 µM
KM12 colon
  TGI: 27 µM
KM20L2 colon
  TGI: 31.6 µM
LOX IMVI melanoma
  TGI: 19.1 µM
LXFL 529 NSCLC
  TGI: 18.5 µM
M14 melanoma
  TGI: 24.1 µM
M19-MEL melanoma
  TGI: 26.5 µM
MALME-3M melanoma
  TGI: 26.8 µM
MCF7 breast
  TGI: 27.6 µM
MDA-MB-231 breast
  TGI: > 55.8 µM
MDA-MB-435
  TGI: 33.7 µM
MDA-N
  TGI: 31.1 µM
MOLT-4 leukemia
  TGI: 6.73 µM
NCI-H226 lung
  TGI: 38.3 µM
NCI-H23 lung
  TGI: 32.8 µM
NCI-H460 lung
  TGI: 47.2 µM
NCI-H522 lung
  TGI: 15.1 µM
NCI/ADR-RES ovarian
  TGI: 40.6 µM
OVCAR-3 ovarian
  TGI: 30.2 µM
OVCAR-4 ovarian
  TGI: 30.6 µM
OVCAR-5 ovarian
  TGI: 35.9 µM
OVCAR-8 ovarian
  TGI: 26.7 µM
PC-3 prostate
  TGI: 29.7 µM
RPMI-8226 leukemia
  TGI: 14.2 µM
RXF 393 renal
  TGI: 42.3 µM
SF-268 CNS
  TGI: 30.8 µM
SF-295 CNS
  TGI: 36.8 µM
SF-539 CNS
  TGI: 30.8 µM
SK-MEL-2 melanoma
  TGI: 32.4 µM
SK-MEL-28 melanoma
  TGI: 33.5 µM
SK-MEL-5 melanoma
  TGI: 28.4 µM
SK-OV-3 ovarian
  TGI: 42.7 µM
SN12C renal
  TGI: 34 µM
SNB-19 CNS
  TGI: 59.1 µM
SNB-75 CNS
  TGI: 34.7 µM
SNB-78 CNS
  TGI: 63.7 µM
SR leukemia
  TGI: 5.05 µM
SW-620 colon
  TGI: 13.8 µM
T-47D breast
  TGI: 22.6 µM
TK-10 renal
  TGI: 26.5 µM
U251 CNS
  TGI: 38.1 µM
UACC-257 melanoma
  TGI: 33.6 µM
UACC-62 melanoma
  TGI: 31.3 µM
UO-31 renal
  TGI: 27.2 µM
XF 498 CNS
  TGI: 27.7 µM

## Cc1ccc([N+](=O)[O-])cc1NC(=O)/C(=N/NC(=S)NN)C1SC(=S)NC1=O (stereo not given)
786-0 renal
  TGI: > 100 µM
A498 renal
  TGI: > 100 µM
A549 NSCLC
  TGI: > 100 µM
ACHN renal
  TGI: > 100 µM
CAKI-1 renal
  TGI: > 100 µM
CCRF-CEM leukemia
  TGI: > 100 µM
COLO 205 colon
  TGI: > 100 µM
DLD-1 colon
  TGI: > 100 µM
DMS 114 small cell lung
  TGI: > 100 µM
DMS 273 small cell lung
  TGI: > 100 µM
EKVX NSCLC
  TGI: > 100 µM
HCT-116 colon
  TGI: > 100 µM
HCT-15 colon
  TGI: > 100 µM
HL-60(TB) leukemia
  TGI: > 100 µM
HOP-18 NSCLC
  TGI: > 100 µM
HOP-62 NSCLC
  TGI: > 100 µM
HOP-92 NSCLC
  TGI: > 100 µM
HT29 colon
  TGI: > 100 µM
IGROV1 ovarian
  TGI: > 100 µM
K-562 leukemia
  TGI: > 100 µM
KM12 colon
  TGI: > 100 µM
KM20L2 colon
  TGI: > 100 µM
LOX IMVI melanoma
  TGI: > 100 µM
LXFL 529 NSCLC
  TGI: > 100 µM
M14 melanoma
  TGI: > 100 µM
MALME-3M melanoma
  TGI: > 100 µM
MOLT-4 leukemia
  TGI: > 100 µM
NCI-H226 lung
  TGI: > 100 µM
NCI-H23 lung
  TGI: > 100 µM
NCI-H460 lung
  TGI: > 100 µM
NCI-H522 lung
  TGI: > 100 µM
OVCAR-4 ovarian
  TGI: > 100 µM
OVCAR-5 ovarian
  TGI: > 100 µM
OVCAR-8 ovarian
  TGI: > 100 µM
RPMI-8226 leukemia
  TGI: > 100 µM
RXF 393 renal
  TGI: > 100 µM
SF-268 CNS
  TGI: > 100 µM
SF-295 CNS
  TGI: > 100 µM
SF-539 CNS
  TGI: > 100 µM
SK-MEL-2 melanoma
  TGI: > 100 µM
SK-MEL-28 melanoma
  TGI: > 100 µM
SK-MEL-5 melanoma
  TGI: > 100 µM
SK-OV-3 ovarian
  TGI: > 100 µM
SN12C renal
  TGI: > 100 µM
SNB-19 CNS
  TGI: > 100 µM
SNB-75 CNS
  TGI: > 100 µM
SNB-78 CNS
  TGI: > 100 µM
SR leukemia
  TGI: > 100 µM
SW-620 colon
  TGI: > 100 µM
TK-10 renal
  TGI: > 100 µM
U251 CNS
  TGI: > 100 µM
UACC-257 melanoma
  TGI: > 100 µM
UACC-62 melanoma
  TGI: > 100 µM
UO-31 renal
  TGI: > 100 µM
XF 498 CNS
  TGI: > 100 µM
